Measured values taken from PMC4175002, “The Design and Synthesis of Potent and Selective Inhibitors of Trypanosoma brucei Glycogen Synthase Kinase 3 for the Treatment of Human African Trypanosomiasis” (Journal of Medicinal Chemistry, 2014).

Key:
Experiment in all cases: Mammalian kinase profiling (DSTT panel)
Type in all cases: biochemical
Conditions in all cases: 10 μM; average percentage of remaining activity
EPH-B3 = target: T1, EPH-B3 (Homo sapiens, UniProt P54753)
T1 construct: purchased Division of Signal Transduction Therapy (DSTT), University of Dundee
T1 sequence (P54753 34-998): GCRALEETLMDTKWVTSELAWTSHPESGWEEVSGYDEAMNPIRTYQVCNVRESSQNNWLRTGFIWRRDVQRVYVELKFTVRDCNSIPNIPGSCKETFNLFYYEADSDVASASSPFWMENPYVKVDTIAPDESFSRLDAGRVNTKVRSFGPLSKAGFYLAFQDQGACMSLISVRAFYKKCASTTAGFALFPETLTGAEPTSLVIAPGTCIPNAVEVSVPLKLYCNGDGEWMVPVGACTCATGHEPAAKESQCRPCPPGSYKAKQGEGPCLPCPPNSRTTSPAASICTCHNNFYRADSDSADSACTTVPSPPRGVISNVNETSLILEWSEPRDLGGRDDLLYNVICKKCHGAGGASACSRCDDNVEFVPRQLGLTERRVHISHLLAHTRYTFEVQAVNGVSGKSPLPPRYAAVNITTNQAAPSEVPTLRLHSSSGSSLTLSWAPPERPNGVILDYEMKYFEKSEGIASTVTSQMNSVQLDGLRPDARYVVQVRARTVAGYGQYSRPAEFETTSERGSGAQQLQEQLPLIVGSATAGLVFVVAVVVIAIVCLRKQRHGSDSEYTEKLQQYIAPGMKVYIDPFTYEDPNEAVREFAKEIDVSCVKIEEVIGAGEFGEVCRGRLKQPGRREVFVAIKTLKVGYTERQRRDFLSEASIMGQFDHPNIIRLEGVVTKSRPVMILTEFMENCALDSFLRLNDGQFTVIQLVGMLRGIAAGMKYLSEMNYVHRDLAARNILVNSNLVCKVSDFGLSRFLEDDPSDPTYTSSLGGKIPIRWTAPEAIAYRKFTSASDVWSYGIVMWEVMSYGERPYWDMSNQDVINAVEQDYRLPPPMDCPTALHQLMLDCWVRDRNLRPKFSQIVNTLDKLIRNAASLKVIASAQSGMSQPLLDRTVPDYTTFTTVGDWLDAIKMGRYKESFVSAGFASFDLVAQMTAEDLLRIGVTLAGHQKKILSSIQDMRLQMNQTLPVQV
Protocol: (§1) To assess the selectivity of the aminopyrazole inhibitors, remaining activity at 10 μM concentration was measured for compounds 4f, 4m, and 4y against a panel of 80 human PKs and for compound 9g against 124 human PKs. […] Compound 4m inhibited only two PKs, namely GSK3β and CDK2, at more than 80%.
(§2) Selected compounds were screened against a panel of mammalian kinases routinely run by the Division of Signal Transduction Therapy (DSTT) at the University of Dundee in duplicate at 10 μM.[32] Enzymes included in the panel and assay conditions are reported in the literature. All biochemical assays are run below the Km^app for the ATP for each enzyme, allowing comparison of inhibition across the panel.

VEG-FR = target: T2, VEG-FR (Homo sapiens, UniProt P17948)
T2 construct: purchased Division of Signal Transduction Therapy (DSTT), University of Dundee
T2 sequence (P17948 27-1338): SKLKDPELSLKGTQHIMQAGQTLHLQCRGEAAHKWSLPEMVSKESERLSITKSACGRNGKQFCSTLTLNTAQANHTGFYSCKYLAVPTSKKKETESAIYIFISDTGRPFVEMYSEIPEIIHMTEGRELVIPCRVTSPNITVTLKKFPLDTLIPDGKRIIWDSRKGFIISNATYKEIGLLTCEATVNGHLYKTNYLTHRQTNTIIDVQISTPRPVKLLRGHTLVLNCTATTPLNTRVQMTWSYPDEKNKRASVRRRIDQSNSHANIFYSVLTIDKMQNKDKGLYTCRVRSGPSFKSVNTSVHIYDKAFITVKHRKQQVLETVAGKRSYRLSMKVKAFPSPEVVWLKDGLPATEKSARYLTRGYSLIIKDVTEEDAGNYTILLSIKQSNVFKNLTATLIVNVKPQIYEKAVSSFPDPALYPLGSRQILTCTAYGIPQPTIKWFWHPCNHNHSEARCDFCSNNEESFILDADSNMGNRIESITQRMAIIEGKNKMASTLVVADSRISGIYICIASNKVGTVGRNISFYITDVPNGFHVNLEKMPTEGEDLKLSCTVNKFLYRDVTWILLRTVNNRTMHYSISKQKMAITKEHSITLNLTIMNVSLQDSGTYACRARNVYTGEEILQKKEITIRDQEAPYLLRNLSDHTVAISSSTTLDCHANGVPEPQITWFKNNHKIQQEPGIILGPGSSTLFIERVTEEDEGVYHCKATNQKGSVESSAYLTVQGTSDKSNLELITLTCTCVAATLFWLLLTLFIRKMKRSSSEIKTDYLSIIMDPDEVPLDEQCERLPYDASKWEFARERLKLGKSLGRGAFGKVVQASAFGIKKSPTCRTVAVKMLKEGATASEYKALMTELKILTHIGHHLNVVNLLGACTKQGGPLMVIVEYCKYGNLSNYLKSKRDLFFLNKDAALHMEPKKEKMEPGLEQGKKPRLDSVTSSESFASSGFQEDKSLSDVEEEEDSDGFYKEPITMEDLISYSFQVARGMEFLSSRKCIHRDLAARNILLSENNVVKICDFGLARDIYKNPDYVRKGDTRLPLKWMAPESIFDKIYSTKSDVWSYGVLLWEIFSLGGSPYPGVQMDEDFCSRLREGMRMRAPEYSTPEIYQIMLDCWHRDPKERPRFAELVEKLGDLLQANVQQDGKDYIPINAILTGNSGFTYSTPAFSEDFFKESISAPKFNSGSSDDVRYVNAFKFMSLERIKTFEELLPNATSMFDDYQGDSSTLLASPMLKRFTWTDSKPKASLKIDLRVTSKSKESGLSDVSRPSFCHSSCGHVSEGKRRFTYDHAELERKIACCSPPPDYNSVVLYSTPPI
Protocol: as §1, §2

ERK1 = target: T3, ERK1 (Homo sapiens, UniProt P27361)
T3 construct: purchased Division of Signal Transduction Therapy (DSTT), University of Dundee
T3 sequence (P27361 whole entry): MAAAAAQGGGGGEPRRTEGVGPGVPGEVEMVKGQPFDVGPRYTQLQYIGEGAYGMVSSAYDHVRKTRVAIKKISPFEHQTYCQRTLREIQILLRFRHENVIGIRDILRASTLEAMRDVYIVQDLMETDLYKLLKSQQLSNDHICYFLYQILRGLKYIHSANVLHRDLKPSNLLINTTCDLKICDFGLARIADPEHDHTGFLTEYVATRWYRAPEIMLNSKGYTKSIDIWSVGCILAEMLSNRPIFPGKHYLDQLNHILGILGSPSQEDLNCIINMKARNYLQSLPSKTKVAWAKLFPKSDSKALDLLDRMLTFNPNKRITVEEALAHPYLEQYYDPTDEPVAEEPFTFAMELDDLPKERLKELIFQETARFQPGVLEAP
Protocol: as §1, §2

CAMKKb = target: T4, CAMKKb (Homo sapiens, UniProt Q96RR4)
T4 construct: purchased Division of Signal Transduction Therapy (DSTT), University of Dundee
T4 sequence (Q96RR4 whole entry): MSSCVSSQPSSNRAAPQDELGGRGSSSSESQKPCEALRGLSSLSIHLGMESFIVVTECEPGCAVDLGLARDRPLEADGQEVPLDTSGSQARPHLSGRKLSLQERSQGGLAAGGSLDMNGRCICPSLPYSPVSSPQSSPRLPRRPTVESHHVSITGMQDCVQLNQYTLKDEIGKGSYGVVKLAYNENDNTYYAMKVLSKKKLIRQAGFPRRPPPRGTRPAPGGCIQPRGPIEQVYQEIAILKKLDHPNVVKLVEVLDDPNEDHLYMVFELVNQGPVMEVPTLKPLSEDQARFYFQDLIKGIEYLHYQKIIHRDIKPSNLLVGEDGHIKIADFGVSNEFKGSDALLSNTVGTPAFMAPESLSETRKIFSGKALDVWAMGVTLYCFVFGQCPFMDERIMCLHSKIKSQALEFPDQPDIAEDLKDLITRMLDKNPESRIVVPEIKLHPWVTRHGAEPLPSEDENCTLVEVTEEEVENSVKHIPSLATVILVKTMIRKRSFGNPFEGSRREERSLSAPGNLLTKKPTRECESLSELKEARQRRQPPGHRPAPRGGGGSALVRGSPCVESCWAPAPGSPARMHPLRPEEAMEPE
Protocol: as §1, §2

NEK2a = target: T5, NEK2a (Homo sapiens, UniProt P51955)
T5 construct: purchased Division of Signal Transduction Therapy (DSTT), University of Dundee
T5 sequence (P51955 1-445): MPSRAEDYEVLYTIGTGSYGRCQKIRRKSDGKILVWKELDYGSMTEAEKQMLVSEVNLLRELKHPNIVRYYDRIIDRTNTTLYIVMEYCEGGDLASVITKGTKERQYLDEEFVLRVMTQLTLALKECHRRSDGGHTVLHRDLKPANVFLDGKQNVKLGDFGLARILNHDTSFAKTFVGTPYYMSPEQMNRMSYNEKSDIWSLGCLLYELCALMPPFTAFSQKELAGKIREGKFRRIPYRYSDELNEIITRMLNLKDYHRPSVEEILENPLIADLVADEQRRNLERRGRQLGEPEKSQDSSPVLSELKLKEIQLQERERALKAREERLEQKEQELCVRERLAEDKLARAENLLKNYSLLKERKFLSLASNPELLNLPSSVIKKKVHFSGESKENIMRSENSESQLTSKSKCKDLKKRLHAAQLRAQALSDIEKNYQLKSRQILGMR
Protocol: as §1, §2

CK1 = target: T6, CK1 (Homo sapiens, UniProt P48730)
T6 construct: purchased Division of Signal Transduction Therapy (DSTT), University of Dundee
T6 sequence (P48730 whole entry): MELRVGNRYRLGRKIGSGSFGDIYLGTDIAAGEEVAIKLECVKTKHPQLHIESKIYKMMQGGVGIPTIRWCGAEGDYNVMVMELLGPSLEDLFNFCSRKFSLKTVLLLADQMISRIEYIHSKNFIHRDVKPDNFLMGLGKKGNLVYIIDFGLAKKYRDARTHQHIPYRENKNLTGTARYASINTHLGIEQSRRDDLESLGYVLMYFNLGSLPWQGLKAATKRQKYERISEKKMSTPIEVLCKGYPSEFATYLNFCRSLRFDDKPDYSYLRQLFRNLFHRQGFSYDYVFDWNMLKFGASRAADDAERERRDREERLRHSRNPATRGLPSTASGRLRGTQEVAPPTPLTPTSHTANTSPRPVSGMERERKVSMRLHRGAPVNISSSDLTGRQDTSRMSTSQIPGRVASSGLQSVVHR
Protocol: as §1, §2

MNK1 = target: T7, MNK1 (Homo sapiens, UniProt Q9BUB5)
T7 construct: purchased Division of Signal Transduction Therapy (DSTT), University of Dundee
T7 sequence (Q9BUB5 whole entry): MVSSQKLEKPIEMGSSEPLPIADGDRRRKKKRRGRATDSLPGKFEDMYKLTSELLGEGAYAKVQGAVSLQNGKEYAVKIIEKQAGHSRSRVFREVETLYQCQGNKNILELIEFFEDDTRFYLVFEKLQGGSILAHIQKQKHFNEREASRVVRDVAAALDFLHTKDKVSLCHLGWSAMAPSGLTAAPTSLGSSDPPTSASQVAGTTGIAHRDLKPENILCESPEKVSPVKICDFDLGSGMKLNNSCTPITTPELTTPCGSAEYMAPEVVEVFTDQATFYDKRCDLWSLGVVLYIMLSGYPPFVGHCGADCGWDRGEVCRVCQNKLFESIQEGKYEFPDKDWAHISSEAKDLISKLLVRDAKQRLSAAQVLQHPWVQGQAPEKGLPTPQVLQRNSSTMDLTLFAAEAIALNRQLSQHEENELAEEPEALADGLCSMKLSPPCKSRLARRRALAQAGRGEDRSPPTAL
Protocol: as §1, §2

PAK5 = target: T8, PAK5 (Homo sapiens, UniProt Q9P286)
T8 construct: purchased Division of Signal Transduction Therapy (DSTT), University of Dundee
T8 sequence (Q9P286 whole entry): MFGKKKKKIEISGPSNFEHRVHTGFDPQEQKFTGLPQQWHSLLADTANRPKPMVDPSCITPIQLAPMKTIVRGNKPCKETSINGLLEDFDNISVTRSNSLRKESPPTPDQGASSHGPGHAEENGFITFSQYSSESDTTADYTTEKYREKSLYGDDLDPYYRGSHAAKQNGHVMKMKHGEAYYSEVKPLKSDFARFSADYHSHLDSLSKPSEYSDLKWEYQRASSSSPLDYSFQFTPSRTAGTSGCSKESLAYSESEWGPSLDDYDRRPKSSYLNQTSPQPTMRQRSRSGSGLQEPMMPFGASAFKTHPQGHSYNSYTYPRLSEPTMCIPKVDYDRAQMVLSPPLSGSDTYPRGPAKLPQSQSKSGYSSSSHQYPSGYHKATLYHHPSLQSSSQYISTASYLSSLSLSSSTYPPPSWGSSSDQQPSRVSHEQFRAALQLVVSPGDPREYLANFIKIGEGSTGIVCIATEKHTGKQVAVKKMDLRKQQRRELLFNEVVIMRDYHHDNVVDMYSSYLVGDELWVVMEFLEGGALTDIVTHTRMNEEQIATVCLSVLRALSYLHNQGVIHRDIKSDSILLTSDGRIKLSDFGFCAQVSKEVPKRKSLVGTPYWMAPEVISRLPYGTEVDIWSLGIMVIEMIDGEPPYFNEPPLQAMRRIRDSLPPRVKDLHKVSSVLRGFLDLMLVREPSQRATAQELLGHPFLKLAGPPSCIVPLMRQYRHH
Protocol: as §1, §2

PDK1 = target: T9, PDK1 (Homo sapiens, UniProt O15530)
T9 construct: purchased Division of Signal Transduction Therapy (DSTT), University of Dundee
T9 sequence (O15530 1-556): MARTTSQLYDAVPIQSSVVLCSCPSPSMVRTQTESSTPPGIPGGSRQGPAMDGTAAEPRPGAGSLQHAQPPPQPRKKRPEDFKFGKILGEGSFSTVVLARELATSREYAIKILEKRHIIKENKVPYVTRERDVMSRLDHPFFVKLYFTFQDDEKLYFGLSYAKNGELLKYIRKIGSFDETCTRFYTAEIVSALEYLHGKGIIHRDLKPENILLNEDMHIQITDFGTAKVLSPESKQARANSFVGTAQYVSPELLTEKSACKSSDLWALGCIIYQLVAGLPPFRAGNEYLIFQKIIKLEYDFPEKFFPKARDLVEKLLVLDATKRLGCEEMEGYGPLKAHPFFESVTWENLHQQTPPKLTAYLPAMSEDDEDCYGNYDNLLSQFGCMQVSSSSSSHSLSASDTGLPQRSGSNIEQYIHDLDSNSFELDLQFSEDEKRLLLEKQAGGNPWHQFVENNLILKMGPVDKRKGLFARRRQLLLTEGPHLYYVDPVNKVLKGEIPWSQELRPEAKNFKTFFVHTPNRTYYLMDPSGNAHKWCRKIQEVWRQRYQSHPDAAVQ
Protocol: as §1, §2

SYK = target: T10, SYK (Homo sapiens, UniProt P43405)
T10 construct: purchased Division of Signal Transduction Therapy (DSTT), University of Dundee
Protocol: as §1, §2

| SMILES | EPH-B3 activity compared to the control (EPH-B3) | VEG-FR activity compared to the control (VEG-FR) | ERK1 activity compared to the control (ERK1) | CAMKKb activity compared to the control (CAMKKb) | NEK2a activity compared to the control (NEK2a) | CK1 activity compared to the control (CK1) | MNK1 activity compared to the control (MNK1) | PAK5 activity compared to the control (PAK5) | PDK1 activity compared to the control (PDK1) | SYK activity compared to the control (SYK) |
| --- | --- | --- | --- | --- | --- | --- | --- | --- | --- | --- |
| CO[C@H]1CC[C@H](NC(=O)c2n[nH]cc2NC(=O)c2ccc(-c3ccccc3)o2)CC1 [Compound 4y, N-(4-Methoxycyclohexyl)-4-(5-phenylfuran-2-carboxamido)-1H-pyrazole-3-carboxamide] | 72% | 29% | 33% | 27% | 69% | 25% | 82% | 47% | 86% | 70% |
| COc1cccc(OC)c1C(=O)Nc1c[nH]nc1C(=O)NC1CCC(OC)CC1 (stereo not drawn) [Compound 4m, 4-(2,6-Dimethoxybenzamido)-N-(4-methoxycyclohexyl)-1H-pyrazole-3-carboxamide] | 100% | 90% | 100% | 50% | 99% | 88% | 81% | 75% | 87% | 100% |
| CO[C@H]1CC[C@H](NC(=O)c2n[nH]cc2NC(=O)c2ccccc2)CC1 [Compound 4f, 4-Benzamido-N-(4-methoxycyclohexyl)-1H-pyrazole-3-carboxamide] | 60% | 52% | 75% | 34% | 100% | 55% | 76% | 68% | 87% | 78% |
